The values below come from patent US20170022258A1, “PEPTIDES FOR USE IN THE TREATMENT OF IL-1 RELATED DISEASES AND CONDITIONS” (C4M PHARMACEUTICALS PTY LTD., priority 2011, published 2017).

Read-outs that look alike come from different tables or passages of the source. Non-standard residues stand in square brackets, D forms with d. Residues, ends and D or L forms follow the SMILES beside them. No end group written: not given here.

Series [1] in a line: Human plasma stability trials. As to conditions: 37° C., 12 hours, read-out: ½ Life human plasma. Format: in vitro ADME. As to the method:
1 mg of each peptide was added to the plasma and the solution was gently agitated for 2 minutes at room temperature before standing at 37° C. for a period of 12 hours.

Series [2] relates to IL-1 stimulation of IL-8 in human skin fibroblasts. Nature of the series: Inhibition of IL-1 induced IL-8 in human fibroblasts. Format: cell-based. Particulars: inhibition of IL-1 stimulation of IL-8 in human skin fibroblasts; average of three measurements and standard error; read-out: Binding (IC50 nM). As to the method:
Inhibition of IL-1 induced IL-8 in human fibroblasts was determined using normal human dermal fibroblast cells cultured in DMEM with 10% fetal calf serum in 48-well plates.
Twenty-four hours before initiation of the experiment, the medium was changed to DMEM with 0.2% fetal calf serum. Each peptide was added to confluent cells, which were then pulsed for 30 min with rIL-I,B (which was obtained from R & D Systems) at 50 pg/ml. The cells were washed four times with PBS, and fresh DMEM/0.2% fetal calf serum was added to each well. After 5 hr of incubation, the culture media were collected and analyzed by ELISA for IL-8 (which was obtained from R & D Systems). Maximal activation, with IL-1 only, was 2530±13 pg/ml of IL-8. Nonspecific activation, determined in the presence of 1000-fold excess IL-1Ra, was 30±9 pg/ml of IL-8 (n=3).

Series [3] in a line: Solubility of peptide under different solvent conditions. Format: physicochemical. As to conditions: 30 min room temperature. As to the method: 100 mg of each peptide was added to 100 ml total of water plus the solvents, and the solution was gently agitated for 30 min at room temperature.
Series [4] relates to thoroughbred having equine laminitis. In words: Effect of peptides on equine laminitis (Obel Lameness Grades). Format: in vivo, horse. As to conditions: for Change in Obel Score: 1 mg intravenously, before vs 24 hours after injection, most negative = greatest improvement; for Duration (days) of effect on laminitis: single 1 mg intravenous, averaged, report by veterinarians. How it is done:
Each of the peptides having the sequences 13, 14, 19 and 4 were also tested to determine their effect on equine laminitis. Each peptide was administered intravenously to a thoroughbred having equine laminitis. The peptides were prepared as compositions containing 1 mg of peptide dissolved in 5 ml of a solution comprising water, bicarbonate and either benzyl alcohol or methanol. The effect of the peptides on equine laminitis was judged by the Obel Lameness Grades, which is a system of rating degrees of lameness resulting from laminitis. […] Obel Grade III horses do resist having a foreleg lifted, and are reluctant to walk. Obel Grade IV horses will walk only if forced. The Obel Score for each of the horses was measured before administration of the peptide and 24 hours after injection of the peptide. […] The effect in reducing laminitis which was caused by one single injection of the peptides on laminitis was short-lived. Therefore, the duration of the effect of the peptides in reducing laminitis was further assessed by attending veterinarians.

Series [5] is described as follows: Stability of peptide once dissolved in solution (1 month). Format: physicochemical. Particulars: 1 mg in 5 ml water, bicarbonate and benzyl alcohol (19, 4) or methanol (13, 14); for Stability of peptide once dissolved in solution (at 1 month), Room Temp (month): room temperature. How it is done:
Each of the peptides having the sequences 13, 14, 19 and 4 were tested to determine their stability in a solution containing (preferred composition above) water, bicarbonate and either benzyl alcohol (peptide 19 and 4) or methanol (peptide 13 and 14). Each of the peptides were held for a period of 1 month at either 4° C. or at room temperature.
1 mg of each peptide was added to the water, bicarbonate and either benzyl alcohol or methanol solution and the solution was gently agitated for 1 hour at room temperature before standing at either 4° C. or at room temperature for a period of 1 month.

Another series has as its target T1, IL-1 receptor (Homo sapiens, UniProt P14778).
T1 construct: confluent human monocytes, which express the IL-1 receptor; endogenous in cells; host or cells: human monocytes
T1 sequence (P14778 18-569): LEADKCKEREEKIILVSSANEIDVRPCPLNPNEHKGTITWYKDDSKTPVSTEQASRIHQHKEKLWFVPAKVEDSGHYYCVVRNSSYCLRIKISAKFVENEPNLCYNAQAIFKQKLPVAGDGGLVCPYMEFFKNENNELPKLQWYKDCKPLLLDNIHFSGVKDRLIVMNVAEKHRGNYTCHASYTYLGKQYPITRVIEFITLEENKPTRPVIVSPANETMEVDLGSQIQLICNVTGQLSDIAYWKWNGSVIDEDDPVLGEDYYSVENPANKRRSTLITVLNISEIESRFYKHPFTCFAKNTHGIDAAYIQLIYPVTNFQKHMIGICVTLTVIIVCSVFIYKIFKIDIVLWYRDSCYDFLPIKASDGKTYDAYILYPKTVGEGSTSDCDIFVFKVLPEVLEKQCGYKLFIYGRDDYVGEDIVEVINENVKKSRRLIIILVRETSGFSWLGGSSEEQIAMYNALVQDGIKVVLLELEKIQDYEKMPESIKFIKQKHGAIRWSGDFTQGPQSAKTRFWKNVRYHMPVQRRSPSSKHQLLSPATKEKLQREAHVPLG
Nature of the series: Radioligand competition binding assay (125I-labeled IL-1α) on human monocytes. Particulars: IL-1 binding antagonism on human monocytes; average of three measurements and standard error. How it is done:
(§1) Radioligand competition binding assays were performed in 96-well plates containing confluent human monocytes, which express the IL-1 receptor. Wells were washed three times with binding buffer, and binding buffer was placed in each well. Peptides were resuspended in dimethyl sulfoxide at 20 mM and diluted in binding buffer to the desired starting concentration. Using a Beckman robotic system, five 3-fold dilutions were prepared, and peptide solution was transferred to duplicate receptor-containing wells. To each well, radioactive ^125Iodine-labeled IL-Ia (Amersham) was added to a final concentration of 40 pM, and the plates were placed on a shaking platform at 4° C. for 2 hr. Plates were washed with PBS using a plate washer, and bound ^125I-labeled IL-la was eluted for 10 min with 0.1 M NaOH and counted in a gamma counter. IC50 values were determined by fitting the data to a two-parameter logistic equation. In all cases, nonspecific binding was determined by the addition of 3 μM of recombinant IL-Ia.

Series [6] concerns the target T2, IL-1 receptor (IL-1R) expressed on human monocytes (human, UniProt P14778 18-569).
T2 construct: whole, on cells; The same entry stands for the receptor on human dermal fibroblasts and on colonic epithelial cell lines in the functional rows; also called interleukin-1 receptor
T2 sequence (looked up): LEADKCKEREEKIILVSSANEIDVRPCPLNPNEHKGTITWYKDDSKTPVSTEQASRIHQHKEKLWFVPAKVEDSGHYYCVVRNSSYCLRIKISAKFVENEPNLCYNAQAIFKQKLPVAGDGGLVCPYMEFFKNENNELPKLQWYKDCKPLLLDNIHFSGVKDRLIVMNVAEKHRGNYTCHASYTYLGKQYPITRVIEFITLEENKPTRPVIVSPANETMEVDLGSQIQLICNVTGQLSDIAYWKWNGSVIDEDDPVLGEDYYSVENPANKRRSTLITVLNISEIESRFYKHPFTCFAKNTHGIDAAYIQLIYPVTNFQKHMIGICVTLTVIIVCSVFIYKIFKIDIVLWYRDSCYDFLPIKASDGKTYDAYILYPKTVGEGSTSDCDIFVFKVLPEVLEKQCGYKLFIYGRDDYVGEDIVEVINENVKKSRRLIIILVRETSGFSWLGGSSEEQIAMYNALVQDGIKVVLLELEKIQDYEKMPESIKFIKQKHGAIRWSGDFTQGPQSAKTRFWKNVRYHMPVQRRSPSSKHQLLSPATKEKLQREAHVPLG
Nature of the series: radioligand competition, 40 pM 125I-IL-1α on confluent human monocytes. As to the method: as §1, with “¹²⁵Iodine-labeled” for “^125Iodine-labeled”, “¹²⁵I-labeled” for “^125I-labeled”, “IC₅₀” for “IC50”

Series [7] concerns the target T2, IL-1 receptor (IL-1R) expressed on …. In words: cell-based or functional assay.
For series [8], the target named is IL-1 receptor (IL-1R) expressed on human monocytes (human) (UniProt P14778). Nature of the series: cell-based or functional assay.
Where [9] appears, read: benzyl alcohol (0.1-1%) in water, benzyl alcohol (0.1-1%), 100 mg peptide in 100 ml, read-out: Solubility: Benzyl Alcohol.
The mark [10] stands for this setting: hydrochloric acid (0.1-1%) in water, hydrochloric acid (0.1-1%), 100 mg peptide in 100 ml water plus solvent, read-out: Solubility: Acid.
The mark [11] stands for this setting: sodium bicarbonate (0.1-1%) in water, sodium bicarbonate (0.1-1%), 100 mg peptide in 100 ml, read-out: Solubility: Base.

Take `CC(=O)N[C@@H](CCC(=O)O)C(=O)N[C@H](C(=O)N1CCC[C@H]1C(=O)N[C@@H](Cc1ccccc1)C(=O)N[C@H](C(=O)N[C@@H](Cc1c[nH]c2ccccc12)C(=O)N[C@@H](CCC(=O)O)C(=O)N[C@@H](CCC(=O)O)C(=O)N[C@@H](CO)C(=O)N[C@@H](CC(N)=O)C(=O)N[C@@H](C)C(=O)N[C@@H](Cc1ccc(O)cc1)C(=O)N[C@@H](Cc1ccc(O)cc1)C(=O)N[C@@H](Cc1c[nH]c2ccccc12)C(=O)N[C@@H](CCC(N)=O)C(=O)N1CCC[C@H]1C(=O)N[C@@H](Cc1ccc(O)cc1)C(=O)N[C@@H](C)C(=O)N[C@@H](CC(C)C)C(=O)N1CCC[C@H]1C(=O)N[C@@H](CC(C)C)C(=O)O)[C@@H](C)O)[C@@H](C)O` [SEQ ID NO. 13, reference compound] (Ac-ETPFTWEESNAYYWQPYALPL-OH; C-terminus assumed): in series [1], the half-life amounted to 46 min. Also, the IC50 (in series [2]; on IL-1 receptor) was 11 nM each time. For the same molecule, the solubility at 30 min was < 1000 µg/mL in series [3] (setting [9]); < 1000 µg/mL in series [3] (setting [10]); > 1000 µg/mL in series [3] (methanol (1-10%) in water, methanol (1-10%), 100 mg peptide in 100 ml, read-out: Solubility: Methanol); < 1000 µg/mL in [3] (setting [11]). Also, the “Change in Obel Score” value in series [4] is given as −0.5. Further, the “Duration (days) of effect on laminitis” value in [4] turned out to be 1 days. Also, the “Stability of peptide once dissolved in solution (at 1 month), 4° C. (month)” value in series [5] came out at 21%. Moreover, the “Stability of peptide once dissolved in solution (at 1 month), Room Temp (month)” value in series [5] is 1%.
For `CC(=O)N[C@@H](Cc1ccccc1)C(=O)N[C@@H](CCC(=O)O)C(=O)N[C@@H](Cc1c[nH]c2ccccc12)C(=O)N[C@H](C(=O)N1CCC[C@H]1C(=O)NCC(=O)N[C@@H](Cc1ccc(O)cc1)C(=O)N[C@@H](Cc1c[nH]c2ccccc12)C(=O)N[C@@H](CCC(N)=O)C(=O)N1CCC[C@H]1C(=O)N[C@@H](Cc1ccc(O)cc1)C(=O)N[C@@H](C)C(=O)N[C@@H](CC(C)C)C(=O)N1CCC[C@H]1C(=O)N[C@@H](CC(C)C)C(=O)O)[C@@H](C)O` [SEQ ID NO. 19, Ac FEWTPGYWQPYALPL, reference compound] (Ac-FEWTPGYWQPYALPL-OH; C-terminus assumed), the half-life in series [1] turned out to be 49 min. Besides, in [2], the IC50 is 10 nM. Moreover, in series [3] (setting [9]), the solubility at 30 min was > 1000 µg/mL. Moreover, the solubility at 30 min in series [3] (setting [10]) is < 1000 µg/mL. Besides, in series [3] (setting [11]), the solubility at 30 min was < 1000 µg/mL. Besides, in [4], the “Change in Obel Score” value is listed as −2.1 and the “Duration (days) of effect on laminitis” value came out at 2 days. In addition, in series [5], the “Stability of peptide once dissolved in solution (at 1 month), 4° C. (month)” value was 95% and the “Stability of peptide once dissolved in solution (at 1 month), Room Temp (month)” value is recorded as 48%.

B1: peptide of SEQ ID NO: 19 (Ac FEWTPGYWQPYALPL) (peptide)
peptide: Ac-FEWTPGYWQPYALPL
notes: also called peptide 19
Take B1: the IC50 in series [6] amounted to 7.1 nM. For the same molecule, the “IC50, in vitro inhibition of IL-1 stimulation of IL-8 in human skin fibroblasts (rIL-1β 50 pg/ml, IL-8 ELISA)” value (“IC50, in vitro inhibition” below) in series [7] was 10 nM.

B2: peptide of SEQ ID NO: 14 (Ac-…, D-amino acids) (peptide)
peptide: Ac-[dL][dP][dL][dA][dY][dP][dQ][dW][dY][dY][dA][dN][dS][dE][dE][dW][dT][dF][dP][dT][dE]
With B2, the IC50, in vitro inhibition of IL-1 stimulation of IL-8 in human skin fibroblasts (rIL-1β 50 pg/ml, IL-8 ELISA) in series [8] was found to be 11 nM.

B3: peptide of SEQ ID NO: 15 (Ac-FTWEESNAYYWQPYALPL) (peptide)
peptide: Ac-FTWEESNAYYWQPYALPL
notes: also called peptide 15
B3: the IC50 in series [6] turned out to be 20 nM. For the same molecule, in series [7], the “IC50, in vitro inhibition” value came to 16 nM.

B4: peptide of SEQ ID NO: 20 (Ac-DGYDRWRQSGERYWQPYALPL) (peptide)
peptide: Ac-DGYDRWRQSGERYWQPYALPL
notes: also called peptide 20
B4 came in with an IC50 in series [6] of 8.1 nM. The “IC50, in vitro inhibition” value in series [7] is 19 nM.

B5: peptide of SEQ ID NO: 17 (Ac-TANVSSFEWTPGYWQPYALPL) (peptide)
peptide: Ac-TANVSSFEWTPGYWQPYALPL
notes: also called peptide 17
On to B5, for which the IC50 in series [6] was 7.6 nM. Besides, the “IC50, in vitro inhibition” value in [7] was 76 nM.
